According to patent publication US20100173914A1, “PHARMACEUTICALS, COMPOSITIONS AND METHODS OF MAKING AND USING THE SAME” (priority 2007, published 2010):

Columns and labels:
[1] = molecular target: T1, human adenosine A1 receptors (Homo sapiens, UniProt P30542); assay: Adenosine receptor binding: binding affinities at hA1 receptors ([3H]DPCPX displacement); details: displacement of [3H]DPCPX, membranes of CHO-K1 cells transfected with human A1
T1 construct: expressed in transfected cells; host or cells: CHO-K1
T1 sequence (P30542 1-326): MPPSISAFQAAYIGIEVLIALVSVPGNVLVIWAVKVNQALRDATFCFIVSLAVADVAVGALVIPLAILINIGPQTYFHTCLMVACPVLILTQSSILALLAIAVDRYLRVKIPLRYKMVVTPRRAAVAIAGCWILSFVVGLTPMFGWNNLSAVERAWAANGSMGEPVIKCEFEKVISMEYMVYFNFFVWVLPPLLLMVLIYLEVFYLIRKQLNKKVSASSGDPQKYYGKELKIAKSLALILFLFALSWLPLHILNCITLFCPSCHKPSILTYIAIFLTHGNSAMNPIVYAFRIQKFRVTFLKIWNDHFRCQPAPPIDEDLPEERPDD
Description: Adenosine Receptor Binding: Binding Affinities at hA1 Receptors
The compounds were examined in an assay measuring in vitro binding to human adenosine A1 receptors by determining the displacement of the adenosine A1 receptor selective radioligand 8-Cyclopentyl-1,3-dipropylxanthine ([^3H]DPCPX) using standard techniques. See, for example, Lohse M J, et al., (1987), 8-Cyclopentyl-1,3-dipropylxanthine (DPCPX)—a selective high affinity antagonist radioligand for A1 adenosine receptors. Naunyn Schmiedebergs Arch Pharmacol., 336(2):204-10, which is incorporated by reference in its entirety.
Frozen CHO-K1 cells (transfected with a human adenosine A1 recepter expression vector) were homogenized in 130 mL of 50 mM Tris HCl buffer (pH 7.5) containing 10 mM MgCl2, and 0.1 IU/mL adenosine deaminase per pellet using a Ultra-Turrax homogeniser. The resultant homogenate was kept for immediate use in the binding. Binding assays were performed in a total volume of 250 μL, containing [^3H]-DPCPX (3.0 nM), membranes and additional drugs. Total binding was determined using drug dilution buffer (50 mM Tris-HCl pH:7.5, 10 mM MgCl2, 5% DMSO). Non-specific binding was determined using 300 μM N6-cyclohexyladenosine (CHA). Following incubation for 90 minutes at 21° C., assays were terminated by rapid filtration with GF/B filters (presoaked in 0.1% (w/v) polyethylenimine) using a Canberra Packard filtermate 196, washed 3 times with ice-cold Tris-HCl (pH 7.4). Filters were left to dry overnight, and Microscint-0 scintillation fluid was then added to the filters. The filters were then left for at least 2 hours before the radioactivity was assessed using a Canberra Packard TopCount microplate scintillation counter.
To determine the free ligand concentration, three vials were counted with 25 μL of [^3H]DPCPX containing 4 mL of Ultima-Gold MV scintillant on a Beckman LS6500 multi-purpose scintillation counter.
(§1) Data was analysed using a 4 parameter logistical equation and non-linear regression which yields affinity constants (pIC50), and slope parameters:
where E is the quantity of binding and [A] is the competitor concentration. The K, is then determined using the Cheng-Prusoff equation: […]

[2] = molecular target: T2, human adenosine A2A receptors (Homo sapiens, UniProt P29274); assay: Adenosine receptor binding: binding affinities at hA2A receptors ([3H]CGS-21680 displacement); details: for Ki: displacement of [3H]CGS-21680, HEK-293 cell membranes; for A2A/A1 selectivity ratio (Ki A2A/Ki A1): ratio of measured Ki values at hA2A and hA1
T2 construct: host or cells: HEK-293
Description: Adenosine Receptor Binding: Binding Affinities at hA2A Receptors
The compounds were examined in an assay measuring in vitro binding to human adenosine A2A receptors by determining the displacement of the adenosine A2A receptor selective radioligand 4-[2-[[6-Amino-9-(N-ethyl-β-D-ribofuranuronamidosyl)-9H-purin-2-yl]amino]ethyl]benzenepropanoic acid hydrochloride ([^3H]CGS-21680) using standard techniques. See, for example, Jarvis et al., J Pharmacol Exp Ther., 251(3):888-93, which is incorporated by reference in its entirety.
Frozen HEK-293 cells were homogenized in 65 mL of 50 mM Tris HCl buffer (pH 7.5) containing 10 mM MgCl2, and 0.1 IU/mL adenosine deaminase per pellet using a Ultra-Turrax homogenizer. The resultant homogenate was kept for immediate use in the binding assay.
Binding assays were performed in a total volume of 250 μL, containing [^3H]-CGS21680 (20.0 nM), membranes and additional drugs. Total binding was determined using drug dilution buffer (50 mM Tris-HCl pH 7.5, 10 mM MgCl2, 5% DMSO). Non-specific binding was determined using 300 μM CHA. Following incubation for 90 minutes at 21° C., assays were terminated by rapid filtration with GF/B filters (presoaked in 0.1% (w/v) polyethylenimine) using a Canberra Packard filtermate 196, washed 3 times with ice-cold Tris-HCl (pH 7.4). Filters were left to dry overnight, and Microscint-0 scintillation fluid was then added to the filters. The filters were then left for at least 2 hours before the radioactivity was assessed using a Canberra Packard TopCount microplate scintillation counter.
To determine the free ligand concentration, three vials were counted with 25 μL of [^3H]CGS21680 containing 4 mL of Ultima-Gold MV scintillant on a Beckman LS6500 multi-purpose scintillation counter.
as §1
where E is the quantity of binding and [A] is the competitor concentration. The Ki is then determined using the Cheng-Prusoff equation: […]

T2 sequence (P29274 whole entry): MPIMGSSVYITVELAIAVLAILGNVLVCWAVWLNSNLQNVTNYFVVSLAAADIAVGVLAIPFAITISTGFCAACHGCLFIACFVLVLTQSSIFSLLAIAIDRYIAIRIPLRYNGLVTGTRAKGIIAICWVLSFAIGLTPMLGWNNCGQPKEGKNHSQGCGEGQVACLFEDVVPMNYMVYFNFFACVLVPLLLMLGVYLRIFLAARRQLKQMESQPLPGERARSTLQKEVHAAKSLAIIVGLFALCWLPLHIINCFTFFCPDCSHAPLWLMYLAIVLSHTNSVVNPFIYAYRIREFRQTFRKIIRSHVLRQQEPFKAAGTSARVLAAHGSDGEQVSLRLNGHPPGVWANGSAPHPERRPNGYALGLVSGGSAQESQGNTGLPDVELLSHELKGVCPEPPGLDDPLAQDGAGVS

Structure (SMILES) | Ki [1] | Ki [2] | A2A/A1 selectivity ratio (Ki A2A/Ki A1) [2]
Cc1ccc(-c2nc(N)nc3c2nnn3Cc2cccc(NS(=O)(=O)O)c2)o1 [3-[(5-amino-7-(5-methylfuran-2-yl)-3H-[1,2,3]triazolo[4,5-d]pyrimidin-3-yl)methyl]phenylsulfamic acid] | 100 to 1000 nM | ≤ 100 nM | H (more than 20)
COc1ccccc1-c1nc(N)nc2c1nnn2Cc1cccc(NS(=O)(=O)O)c1 [3-[(5-amino-7-(2-methoxyphenyl)-3H-[1,2,3]triazolo[4,5-d]pyrimidin-3-yl)methyl]-phenylsulfamic acid] | 1000 to 10000 nM | 1000 to 10000 nM | E (less than 5)
COc1cc(Cn2nnc3c(-c4ccccc4)nc(N)nc32)ccc1NS(=O)(=O)O [4-[(5-amino-7-phenyl-3H-[1,2,3]triazolo[4,5-d]pyrimidin-3-yl)methyl]-2-methoxyphenylsulfamic acid] | 1000 to 10000 nM | 100 to 1000 nM | G (10 to 20)
Cc1cc(Cn2nnc3c(-c4ccco4)nc(N)nc32)ccc1NS(=O)(=O)O [4-[(5-amino-7-(furan-2-yl)-3H-[1,2,3]triazolo[4,5-d]pyrimidin-3-yl)methyl]-2-methylphenylsulfamic acid] | 100 to 1000 nM | ≤ 100 nM | H (more than 20)
COc1cc(NS(=O)(=O)O)ccc1Cn1nnc2c(-c3ccccc3)nc(N)nc21 [4-[(5-amino-7-phenyl-3H-[1,2,3]triazolo[4,5-d]pyrimidin-3-yl)methyl]-3-methoxyphenylsulfamic acid] | > 10000 nM | 1000 to 10000 nM | F (5 to 10)
COc1cc(Cn2nnc3c(-c4ccco4)nc(N)nc32)ccc1NS(=O)(=O)O [4-[(5-amino-7-(furan-2-yl)-3H-[1,2,3]triazolo[4,5-d]pyrimidin-3-yl)methyl]-2-methoxyphenylsulfamic acid] | > 10000 nM | 1000 to 10000 nM | G (10 to 20)
COc1ccccc1-c1nc(N)nc2c1nnn2Cc1ccc(C)c(NS(=O)(=O)O)c1 [5-[(5-amino-7-(2-methoxyphenyl)-3H-[1,2,3]triazolo[4,5-d]pyrimidin-3-yl)methyl]-2-methylphenylsulfamic acid] | 1000 to 10000 nM | 1000 to 10000 nM | E (less than 5)
COc1ccccc1-c1nc(N)nc2c1nnn2Cc1ccc(NS(=O)(=O)O)cc1 [4-[(5-amino-7-(2-methoxyphenyl)-3H-[1,2,3]triazolo[4,5-d]pyrimidin-3-yl)methyl]phenylsulfamic acid] | > 10000 nM | 1000 to 10000 nM | E (less than 5)
Nc1nc(-c2ccco2)c2nnn(Cc3cccc(NS(=O)(=O)O)c3)c2n1 [3-[(5-amino-7-(furan-2-yl)-3H-[1,2,3]triazolo[4,5-d]pyrimidin-3-yl)methyl]-phenylsulfamic acid] | 1000 to 10000 nM | 100 to 1000 nM | H (more than 20)
Cc1ccc(-c2nc(N)nc3c2nnn3Cc2ccc(NS(=O)(=O)O)cc2)o1 [4-[(5-amino-7-(5-methylfuran-2-yl)-3H-[1,2,3]triazolo[4,5-d]pyrimidin-3-yl)methyl]phenylsulfamic acid] | 1000 to 10000 nM | ≤ 100 nM | H (more than 20)
Cc1ccc(Cn2nnc3c(-c4cccs4)nc(N)nc32)cc1NS(=O)(=O)O [5-[(5-amino-7-(thiophen-2-yl)-3H-[1,2,3]triazolo[4,5-d]pyrimidin-3-yl)methyl]-2-methylphenylsulfamic acid] | 1000 to 10000 nM | ≤ 100 nM | H (more than 20)

Continued, values first:

Ki [1] | Ki [2] | A2A/A1 selectivity ratio (Ki A2A/Ki A1) [2] | Structure (SMILES)
1000 to 10000 nM | 100 to 1000 nM | G (10 to 20) | Nc1nc(-c2cccs2)c2nnn(Cc3cccc(NS(=O)(=O)O)c3)c2n1 [3-[(5-amino-7-(thiophen-2-yl)-3H-[1,2,3]triazolo[4,5-d]pyrimidin-3-yl)methyl]-phenylsulfamic acid]
> 10000 nM | > 10000 nM | E (less than 5) | COc1cc(Cn2nnc3c(-c4ccccc4OC)nc(N)nc32)ccc1NS(=O)(=O)O [4-[(5-amino-7-(2-methoxyphenyl)-3H-[1,2,3]triazolo[4,5-d]pyrimidin-3-yl)methyl]-2-methoxyphenylsulfamic acid]
100 to 1000 nM | ≤ 100 nM | H (more than 20) | Cc1ccc(Cn2nnc3c(-c4ccco4)nc(N)nc32)cc1NS(=O)(=O)O [5-[(5-amino-7-(furan-2-yl)-3H-[1,2,3]triazolo[4,5-d]pyrimidin-3-yl)methyl]-2-methylphenylsulfamic acid]
> 10000 nM | 1000 to 10000 nM | E (less than 5) | COc1cc(NS(=O)(=O)O)ccc1Cn1nnc2c(-c3ccccc3OC)nc(N)nc21 [4-[(5-amino-7-(2-methoxyphenyl)-3H-[1,2,3]triazolo[4,5-d]pyrimidin-3-yl)methyl]-3-methoxyphenylsulfamic acid]
1000 to 10000 nM | 100 to 1000 nM | H (more than 20) | COc1cc(NS(=O)(=O)O)ccc1Cn1nnc2c(-c3ccc(C)o3)nc(N)nc21
100 to 1000 nM | ≤ 100 nM | H (more than 20) | Cc1ccc(-c2nc(N)nc3c2nnn3Cc2ccc(C)c(NS(=O)(=O)O)c2)o1 [5-[(5-amino-7-(5-methylfuran-2-yl)-3H-[1,2,3]triazolo[4,5-d]pyrimidin-3-yl)methyl]-2-methylphenylsulfamic acid]
1000 to 10000 nM | 100 to 1000 nM | G (10 to 20) | Nc1nc(-c2ccccc2)c2nnn(Cc3ccc(NS(=O)(=O)O)cc3)c2n1 [4-[(5-amino-7-(phenyl,2,3]triazolo[4,5-d]pyrimidin-3-yl)methyl]phenylsulfamic acid]
100 to 1000 nM | ≤ 100 nM | H (more than 20) | Cc1ccc(-c2nc(N)nc3c2nnn3Cc2ccc(NS(=O)(=O)O)c(C)c2)o1 [4-[(5-amino-7-(5-methylfuran-2-yl)-3H-[1,2,3]triazolo[4,5-d]pyrimidin-3-yl)methyl]-2-methylphenylsulfamic acid]
100 to 1000 nM | ≤ 100 nM | H (more than 20) | COc1cc(Cn2nnc3c(-c4ccc(C)o4)nc(N)nc32)ccc1NS(=O)(=O)O [4-[(5-amino-7-(5-methylfuran-2-yl)-3H-[1,2,3]triazolo[4,5-d]pyrimidin-3-yl)methyl]-2-methoxyphenylsulfamic acid]
100 to 1000 nM | ≤ 100 nM | H (more than 20) | Cc1cc(Cn2nnc3c(-c4ccccc4)nc(N)nc32)ccc1NS(=O)(=O)O [4-[(5-amino-7-phenyl-3H-[1,2,3]triazolo[4,5-d]pyrimidin-3-yl)methyl]-2-methylphenylsulfamic acid]
